From PubChem BioAssay (NCI)
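Five compound concentrations were applied to cells in 96-well plates for 48 hours; endpoints were derived by simple linear interpolation of the resulting dose-response curve. At the GI50, growth is halved. TGI: total growth inhibition.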

Experiments:
Assay in all cases: NCI anticancer screen, dose series, 48 h
TK-10 renal = tested on: TK-10 renal
U251 CNS = tested on: U251 CNS
COLO 205 colon = tested on: COLO 205 colon
NCI-H23 lung = tested on: NCI-H23 lung
ACHN renal = tested on: ACHN renal
SK-MEL-28 melanoma = tested on: SK-MEL-28 melanoma
NCI-H522 lung = tested on: NCI-H522 lung
OVCAR-4 ovarian = tested on: OVCAR-4 ovarian
MALME-3M melanoma = tested on: MALME-3M melanoma
DU-145 prostate = tested on: DU-145 prostate
SK-MEL-5 melanoma = tested on: SK-MEL-5 melanoma
HOP-92 NSCLC = tested on: HOP-92 NSCLC
SNB-19 CNS = tested on: SNB-19 CNS
SK-MEL-2 melanoma = tested on: SK-MEL-2 melanoma
MCF7 breast = tested on: MCF7 breast
M14 melanoma = tested on: M14 melanoma
BT-549 breast = tested on: BT-549 breast
HCT-116 colon = tested on: HCT-116 colon
MDA-MB-435 = tested on: MDA-MB-435
A549 NSCLC = tested on: A549 NSCLC
SW-620 colon = tested on: SW-620 colon
OVCAR-3 ovarian = tested on: OVCAR-3 ovarian
OVCAR-8 ovarian = tested on: OVCAR-8 ovarian
K-562 leukemia = tested on: K-562 leukemia
SF-295 CNS = tested on: SF-295 CNS
HL-60(TB) leukemia = tested on: HL-60(TB) leukemia
RPMI-8226 leukemia = tested on: RPMI-8226 leukemia
SN12C renal = tested on: SN12C renal
SR leukemia = tested on: SR leukemia

Compound `Cn1cc(C2=C(c3cn(CCSC(=N)N)c4ccccc34)C(=O)NC2=O)c2ccccc21` has a GI50 (TK-10 renal) of 3.15 µM, a TGI (TK-10 renal) of 6.54 µM and a GI50 (U251 CNS) of 2.91 µM. For the same compound, the TGI (U251 CNS) was 6.32 µM, the GI50 (COLO 205 colon) was 1.13 µM and the TGI (COLO 205 colon) was 4.52 µM. For the same compound, the GI50 (NCI-H23 lung) was 3.53 µM, the TGI (NCI-H23 lung) was 7.92 µM and the GI50 (ACHN renal) was 3.81 µM. It also gave a TGI (ACHN renal) of 7.74 µM, a GI50 (SK-MEL-28 melanoma) of 3.53 µM and a TGI (SK-MEL-28 melanoma) of 7.06 µM. For the same compound, the GI50 (NCI-H522 lung) was 1.88 µM, the TGI (NCI-H522 lung) was 5.64 µM and the GI50 (OVCAR-4 ovarian) was 3.88 µM. It also gave a TGI (OVCAR-4 ovarian) of 8.96 µM, a GI50 (MALME-3M melanoma) of 4.08 µM and a TGI (MALME-3M melanoma) of 7.83 µM. It also gave a GI50 (DU-145 prostate) of 3.94 µM, a TGI (DU-145 prostate) of 7.81 µM and a GI50 (SK-MEL-5 melanoma) of 3.83 µM. It also gave a TGI (SK-MEL-5 melanoma) of 7.43 µM, a GI50 (HOP-92 NSCLC) of 2.38 µM and a TGI (HOP-92 NSCLC) of 8.78 µM. The GI50 (SNB-19 CNS) was 4.74 µM, the TGI (SNB-19 CNS) was 10.3 µM and the GI50 (SK-MEL-2 melanoma) was 2.79 µM. For the same compound, the TGI (SK-MEL-2 melanoma) was 6.22 µM, the GI50 (MCF7 breast) was 1.19 µM and the TGI (MCF7 breast) was 4.55 µM. For the same compound, the GI50 (M14 melanoma) was 3.74 µM, the TGI (M14 melanoma) was 8.01 µM and the GI50 (BT-549 breast) was 4.11 µM. For the same compound, the TGI (BT-549 breast) was 8.31 µM, the GI50 (HCT-116 colon) was 1.45 µM and the TGI (HCT-116 colon) was 5.77 µM. The GI50 (MDA-MB-435) was 1.73 µM, the TGI (MDA-MB-435) was 5.25 µM and the GI50 (A549 NSCLC) was 3.94 µM. The TGI (A549 NSCLC) was 8.18 µM, the GI50 (SW-620 colon) was 3.25 µM and the TGI (SW-620 colon) was 7.05 µM. It also gave a GI50 (OVCAR-3 ovarian) of 3.37 µM, a TGI (OVCAR-3 ovarian) of 6.74 µM and a GI50 (OVCAR-8 ovarian) of 3.95 µM. For the same compound, the TGI (OVCAR-8 ovarian) was 8.91 µM, the GI50 (K-562 leukemia) was 1.87 µM and the TGI (K-562 leukemia) was 6.1 µM. For the same compound, the GI50 (SF-295 CNS) was 3.47 µM, the TGI (SF-295 CNS) was 7.39 µM and the GI50 (HL-60(TB) leukemia) was 4.65 µM. The TGI (HL-60(TB) leukemia) was 10 µM, the GI50 (RPMI-8226 leukemia) was 4.18 µM and the TGI (RPMI-8226 leukemia) was 10.1 µM. For the same compound, the GI50 (SN12C renal) was 2.8 µM, the TGI (SN12C renal) was 6.37 µM and the GI50 (SR leukemia) was 1.23 µM.
